Patent US12357631B2 (priority 2018, dated 2025)

The molecules below were run against PB2 (Influenza A virus, UniProt P03428) (assay: biochemical).
PB2, sequence (P03428 whole entry, looked up): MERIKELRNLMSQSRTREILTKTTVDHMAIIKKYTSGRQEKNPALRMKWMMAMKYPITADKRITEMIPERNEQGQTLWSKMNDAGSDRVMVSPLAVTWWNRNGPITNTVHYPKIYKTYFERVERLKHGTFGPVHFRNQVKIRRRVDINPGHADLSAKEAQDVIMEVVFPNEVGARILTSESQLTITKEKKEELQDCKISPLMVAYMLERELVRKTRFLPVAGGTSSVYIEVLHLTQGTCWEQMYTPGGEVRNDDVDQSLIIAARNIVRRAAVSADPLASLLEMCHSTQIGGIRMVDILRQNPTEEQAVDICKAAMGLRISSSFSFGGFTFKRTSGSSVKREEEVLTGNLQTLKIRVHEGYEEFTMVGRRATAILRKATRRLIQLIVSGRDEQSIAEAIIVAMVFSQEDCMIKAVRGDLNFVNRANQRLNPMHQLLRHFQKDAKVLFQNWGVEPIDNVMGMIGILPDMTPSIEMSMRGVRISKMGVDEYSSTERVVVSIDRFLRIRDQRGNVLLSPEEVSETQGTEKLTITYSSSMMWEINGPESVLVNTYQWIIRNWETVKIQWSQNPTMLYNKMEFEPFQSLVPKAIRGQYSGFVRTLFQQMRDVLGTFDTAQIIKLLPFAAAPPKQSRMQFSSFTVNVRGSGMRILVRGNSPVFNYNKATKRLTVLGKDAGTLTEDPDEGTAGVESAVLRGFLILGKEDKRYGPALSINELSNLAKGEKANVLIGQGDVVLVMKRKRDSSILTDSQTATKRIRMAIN
Assay type: binding
Molecule CCOCCOCCOCC(=O)N[C@@H]1CCC[C@H](Nc2nc(-c3c[nH]c4ncc(F)cc34)ncc2F)C1 [Compound A263] has an EC50 of 25 to 50 µM.
CCOCCOCCOCCNC(=O)N[C@@H]1CCC[C@H](Nc2nc(-c3c[nH]c4ncc(F)cc34)ncc2F)C1 [Compound A164] showed an EC50 of 25 to 50 µM.
CCOCCOCCCCCN(C)C(=O)N(C)[C@H]1CCC[C@@H](Nc2nc(-c3c[nH]c4ncc(F)cc34)ncc2F)C1 [Compound A241] gave an EC50 greater than 100 µM.
Work on O=C(NCc1cccnc1)OCc1ccnc(C(=O)N[C@@H]2CCC[C@H](Nc3nc(-c4c[nH]c5ncc(F)cc45)ncc3F)C2)c1 [Compound A93] yielded an EC50 of 5 to 25 µM.
In the case of O=C(N[C@H]1CCC[C@@H](Nc2nc(-c3c[nH]c4ncc(F)cc34)ncc2F)C1)c1cncc2ccccc12 [Compound A65], the EC50 is reported as 25 to 50 µM.
Molecule O=C(NCC(=O)N1CCOCC1)OCc1ccnc(C(=O)N[C@H]2CCC[C@@H](Nc3nc(-c4c[nH]c5ncc(F)cc45)ncc3F)C2)c1 [Compound A121] has an EC50 of 5 to 25 µM.
In the case of CCOc1cccc(-c2cncc(C(=O)N[C@@H]3CCC[C@H](Nc4nc(-c5c[nH]c6ncc(F)cc56)ncc4F)C3)c2)c1 [Compound A68], the EC50 is reported as 25 to 50 µM.
O=C(NCc1cccc(Oc2ccccc2)c1)OCc1ccnc(C(=O)N[C@H]2CCC[C@@H](Nc3nc(-c4c[nH]c5ncc(F)cc45)ncc3F)C2)c1 [Compound A119] was tested, and the EC50 was greater than 100 µM.
In the case of Cc1ccccc1CNC(=O)OCc1ccnc(C(=O)N[C@H]2CCC[C@@H](Nc3nc(-c4c[nH]c5ncc(F)cc45)ncc3F)C2)c1 [Compound A123], the EC50 is reported as greater than 100 µM.
For CCCCCOCCOCCN(C)C(=O)N[C@@H]1CCC[C@H](Nc2nc(-c3c[nH]c4ncc(F)cc34)ncc2F)C1 [Compound A177], the EC50 was greater than 100 µM.
Molecule CCOCCOCCCC1CCN(C(=O)N[C@H]2CCC[C@@H](Nc3nc(-c4c[nH]c5ncc(F)cc45)ncc3F)C2)C1 (some centres unmarked) [Compound A11] has an EC50 of 5 to 25 µM.
O=C(NCCc1ccccc1)OCc1ccnc(C(=O)N[C@@H]2CCC[C@H](Nc3nc(-c4c[nH]c5ncc(F)cc45)ncc3F)C2)c1 [Compound A94] was tested, and the EC50 was greater than 100 µM.
O=C(N[C@H]1CCC[C@@H](Nc2nc(-c3c[nH]c4ncc(F)cc34)ncc2F)C1)N1CCCC(CCCOCCO)C1 (some centres unmarked) [Compound A10] gave an EC50 of 5 to 25 µM.
With CCCOCCCCCc1ccnc(C(=O)N[C@@H]2CCC[C@H](Nc3nc(-c4c[nH]c5ncc(F)cc45)ncc3F)C2)c1 [Compound A28] the EC50 was greater than 100 µM.
CC(NC(=O)OCc1ccnc(C(=O)N[C@H]2CCC[C@@H](Nc3nc(-c4c[nH]c5ncc(F)cc45)ncc3F)C2)c1)c1ccccn1 (some centres unmarked) [Compound A136] showed an EC50 of 5 to 25 µM.
Molecule CCOCc1ccc(C(=O)N[C@@H]2CCC[C@H](Nc3nc(-c4c[nH]c5ncc(F)cc45)ncc3F)C2)nc1 [Compound A41] has an EC50 of 50 to 100 µM.
CCCCCCCCCCCN(C)C(=O)N[C@@H]1CCC[C@H](Nc2nc(-c3c[nH]c4ncc(F)cc34)ncc2F)C1 [Compound A175] gave an EC50 of 50 to 100 µM.
Molecule NCCOCCOCCOCC(=O)N1CCC[C@H](Nc2nc(-c3c[nH]c4ncc(F)cc34)ncc2F)C1 [Compound C4] has an EC50 of 5 to 25 µM.
With O=C(CNC(=O)OCc1ccnc(C(=O)N[C@H]2CCC[C@@H](Nc3nc(-c4c[nH]c5ncc(F)cc45)ncc3F)C2)c1)Nc1ccccc1C(=O)O [Compound A129] the EC50 was less than 5 µM.
CCOCCCCCOCC(=O)N[C@@H]1CCC[C@H](Nc2nc(-c3c[nH]c4ncc(F)cc34)ncc2F)C1 [Compound A274] was tested, and the EC50 was greater than 100 µM.
CCOC1CCCCC1OCCCCCN(C)C(=O)N[C@H]1CCC[C@@H](Nc2nc(-c3c[nH]c4ncc(F)cc34)ncc2F)C1 (some centres unmarked) [Compound A245] was tested, and the EC50 was greater than 100 µM.
Molecule O=C(N[C@@H]1CCC[C@H](Nc2nc(-c3c[nH]c4ncc(F)cc34)ncc2F)C1)c1cc(-c2ccc(F)cc2)ccn1 [Compound A60] has an EC50 of 5 to 25 µM.
With CCCCCOCCOCCN(Cc1ccccc1)C(=O)N[C@@H]1CCC[C@H](Nc2nc(-c3c[nH]c4ncc(F)cc34)ncc2F)C1 [Compound A179] the EC50 was greater than 100 µM.
With CCOCCOc1cccc(CC(=O)N[C@H]2CCC[C@@H](Nc3nc(-c4c[nH]c5ncc(F)cc45)ncc3F)C2)c1 [Compound A279] the EC50 was greater than 100 µM.

The molecules below were run against PB2 CDlp7007 H3N2 (Influenza A virus, UniProt P31345) (assay: biochemical).
PB2 CDlp7007 H3N2, sequence (P31345 whole entry, looked up): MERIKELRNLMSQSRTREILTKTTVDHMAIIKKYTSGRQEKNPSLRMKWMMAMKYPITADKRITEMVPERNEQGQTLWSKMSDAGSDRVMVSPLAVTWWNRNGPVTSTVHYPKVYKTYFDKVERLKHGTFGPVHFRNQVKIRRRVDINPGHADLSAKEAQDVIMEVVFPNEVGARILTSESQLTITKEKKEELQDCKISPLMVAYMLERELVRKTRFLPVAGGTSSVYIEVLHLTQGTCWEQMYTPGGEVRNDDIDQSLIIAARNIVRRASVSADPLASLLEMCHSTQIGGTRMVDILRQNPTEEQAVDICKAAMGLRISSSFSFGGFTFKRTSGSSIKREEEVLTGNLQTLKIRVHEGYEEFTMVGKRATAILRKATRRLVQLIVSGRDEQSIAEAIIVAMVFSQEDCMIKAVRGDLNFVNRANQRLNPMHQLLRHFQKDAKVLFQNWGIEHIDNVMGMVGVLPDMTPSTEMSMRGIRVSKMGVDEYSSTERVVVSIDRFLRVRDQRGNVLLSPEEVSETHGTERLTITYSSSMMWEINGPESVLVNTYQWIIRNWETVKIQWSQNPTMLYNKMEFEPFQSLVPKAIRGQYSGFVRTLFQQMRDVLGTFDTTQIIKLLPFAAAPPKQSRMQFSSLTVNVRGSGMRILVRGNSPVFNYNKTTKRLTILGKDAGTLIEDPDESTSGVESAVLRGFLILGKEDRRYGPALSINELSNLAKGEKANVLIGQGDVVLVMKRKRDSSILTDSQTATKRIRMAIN
Assay type: binding
CCOCCOCCOCC(=O)N[C@@H]1CCC[C@H](Nc2nc(-c3c[nH]c4ncc(F)cc34)ncc2F)C1 [Compound A263] gave an IC50 of 25 to 50 µM.
Molecule CCOCCOCCOCCNC(=O)N[C@@H]1CCC[C@H](Nc2nc(-c3c[nH]c4ncc(F)cc34)ncc2F)C1 [Compound A164] has an IC50 of 25 to 50 µM.
